For assay [1], the system named is Phytophthora infestans. The assay can be described thus: microbe, parasite or virus in culture. In kind it is cell-based. The note with it: in Secale cereale, 168 h, read-out: control compared to the untreated check.
Assay [2] concerns Phytophthora infestans. The assay can be described thus: whole plant or invertebrate. The format is in vivo, Phytophthora infestans on tomato plants. The note with it: in Solanum lycopersicum, 24 h, read-out: control compared to the untreated check.

Structures are written as SMILES.

Turning to `COc1nccnc1OCC(=O)N1CCC(c2nc(C3=NOC(c4c(Cl)cccc4C#N)C3)cs2)CC1` (centres unmarked) [Compound 26, 3-chloro-2-(3-(2-(1-(2-((3-methoxypyrazin-2-yl)oxy)acetyl)piperidin-4-yl)thiazol-4-yl)-4,5-dihydroisoxazol-5-yl)benzonitrile], the inhibition of growth at 30 ppm in the assay with Phytophthora infestans [1] was at least 70%. The pest or weed control at 50 ppm in the assay on Phytophthora infestans [2] is at least 70%.
Regarding `COc1ccnc(OCC(=O)N2CCC(c3nc(C4=NOC(c5c(Cl)cccc5OS(C)(=O)=O)C4)cs3)CC2)n1` (centres unmarked) [Compound 32, 3-chloro-2-(3-(2-(1-(2-((4-methoxypyrimidin-2-yl)oxy)acetyl)piperidin-4-yl)thiazol-4-yl)-4,5-dihydroisoxazol-5-yl)phenyl methanesulfonate], the inhibition of growth at 30 ppm in the assay with Phytophthora infestans [1] is at least 70%. Moreover, in the assay with Phytophthora infestans [2], the pest or weed control at 50 ppm is at least 70%.
As for `CS(=O)(=O)Oc1cccc(Cl)c1C1CC(c2csc(C3CCN(C(=O)COc4ccc(C(F)(F)F)nn4)CC3)n2)=NO1` (centres unmarked) [Compound 41, 3-chloro-2-(3-(2-(1-(2-((6-(trifluoromethyl)pyridazin-3-yl)oxy)acetyl)piperidin-4-yl)thiazol-4-yl)-4,5-dihydroisoxazol-5-yl)phenyl methanesulfonate], the inhibition of growth at 30 ppm with Phytophthora infestans [1] is at least 70%. The pest or weed control at 50 ppm with Phytophthora infestans [2] is at least 70%.
For the compound `O=C(COc1ccc(C(F)(F)F)nn1)N1CCC(c2nc(C3=NOC(c4c(F)cccc4Br)C3)cs2)CC1` (centres unmarked) [Compound 43, 1-(4-(4-(5-(2-bromo-6-fluorophenyl)-4,5-dihydroisoxazol-3-yl)thiazol-2-yl)piperidin-1-yl)-2-((6-(trifluoromethyl)pyridazin-3-yl)oxy)ethan-1-one], the inhibition of growth at 30 ppm in the assay on Phytophthora infestans [1] is at least 70%. Moreover, the pest or weed control at 50 ppm in the assay on Phytophthora infestans [2] is at least 70%.
For the compound `COc1nccnc1OCC(=O)N1CCC(c2nc(C3=NOC(c4c(F)cccc4Br)C3)cs2)CC1` (centres unmarked) [Compound 28, 1-(4-(4-(5-(2-bromo-6-fluorophenyl)-4,5-dihydroisoxazol-3-yl)thiazol-2-yl)piperidin-1-yl)-2-((3-methoxypyrazin-2-yl)oxy)ethan-1-one], the inhibition of growth at 30 ppm in the assay with Phytophthora infestans [1] was at least 70%. The pest or weed control at 50 ppm with Phytophthora infestans [2] is at least 70%.
In the case of `O=C(COc1cc(C(F)(F)F)ncn1)N1CCC(c2nc(C3=NOC(c4c(F)cccc4Cl)C3)cs2)CC1` (centres unmarked) [Compound 9, 1-(4-(4-(5-(2-chloro-6-fluorophenyl)-4,5-dihydroisoxazol-3-yl)thiazol-2-yl)piperidin-1-yl)-2-((6-(trifluoromethyl)pyrimidin-4-yl)oxy)ethan-1-one], the inhibition of growth at 30 ppm in the assay with Phytophthora infestans [1] is at least 70%. In addition, in the assay with Phytophthora infestans [2], the pest or weed control at 50 ppm is at least 70%.
With `N#Cc1cccc(Cl)c1C1CC(c2csc(C3CCN(C(=O)COc4ccc(C(F)(F)F)nn4)CC3)n2)=NO1` (centres unmarked) [Compound 40, 3-chloro-2-(3-(2-(1-(2-((6-(trifluoromethyl)pyridazin-3-yl)oxy)acetyl)piperidin-4-yl)thiazol-4-yl)-4,5-dihydroisoxazol-5-yl)benzonitrile], the inhibition of growth at 30 ppm with Phytophthora infestans [1] was at least 70%. Further, in the assay on Phytophthora infestans [2], the pest or weed control at 50 ppm was at least 70%.
Regarding `COc1ccnc(OCC(=O)N2CCC(c3nc(C4=NOC(c5c(Cl)cccc5C#N)C4)cs3)CC2)n1` (centres unmarked) [Compound 31, 3-chloro-2-(3-(2-(1-(2-((4-methoxypyrimidin-2-yl)oxy)acetyl)piperidin-4-yl)thiazol-4-yl)-4,5-dihydroisoxazol-5-yl)benzonitrile], the inhibition of growth at 30 ppm in the assay on Phytophthora infestans [1] was at least 70%. Besides, the pest or weed control at 50 ppm with Phytophthora infestans [2] is at least 70%.
Consider `O=C(COc1ccc(C(F)(F)F)nn1)N1CCC(c2nc(C3=NOC(c4c(Cl)cccc4Cl)C3)cs2)CC1` (centres unmarked) [Compound 38, 1-(4-(4-(5-(2,6-dichlorophenyl)-4,5-dihydroisoxazol-3-yl)thiazol-2-yl)piperidin-1-yl)-2-((6-(trifluoromethyl)pyridazin-3-yl)oxy)ethan-1-one], for which the inhibition of growth at 30 ppm in the assay with Phytophthora infestans [1] was at least 70%. For the same compound, the pest or weed control at 50 ppm in the assay on Phytophthora infestans [2] is at least 70%.
As to `O=C(COc1nccnc1C(F)(F)F)N1CCC(c2csc(C3=NOC(c4c(Cl)cccc4Cl)C3)n2)CC1` (centres unmarked) [Compound 13, 1-(4-(2-(5-(2,6-dichlorophenyl)-4,5-dihydroisoxazol-3-yl)thiazol-4-yl)piperidin-1-yl)-2-((3-(trifluoromethyl)pyrazin-2-yl)oxy)ethan-1-one], in the assay on Phytophthora infestans [1], the inhibition of growth at 30 ppm is at least 70%. Besides, the pest or weed control at 50 ppm with Phytophthora infestans [2] was at least 70%.
For `O=C(COc1nccnc1C(F)(F)F)N1CCC(c2csc(C3=NOC(c4c(Cl)cc(Cl)cc4Cl)C3)n2)CC1` (centres unmarked) [Compound 8, 1-(4-(2-(5-(2,4,6-trichlorophenyl)-4,5-dihydroisoxazol-3-yl)thiazol-4-yl)piperidin-1-yl)-2-((3-(trifluoromethyl)pyrazin-2-yl)oxy)ethan-1-one], in the assay on Phytophthora infestans [1], the inhibition of growth at 30 ppm was at least 70%. Also, in the assay on Phytophthora infestans [2], the pest or weed control at 50 ppm is at least 70%.
As to `COc1nccnc1OCC(=O)N1CCC(c2nc(C3=NOC(c4c(Cl)cccc4OS(C)(=O)=O)C3)cs2)CC1` (centres unmarked) [Compound 29, 3-chloro-2-(3-(2-(1-(2-((3-methoxypyrazin-2-yl)oxy)acetyl)piperidin-4-yl)thiazol-4-yl)-4,5-dihydroisoxazol-5-yl)phenyl methanesulfonate], the inhibition of growth at 30 ppm with Phytophthora infestans [1] is at least 70%. Further, in the assay with Phytophthora infestans [2], the pest or weed control at 50 ppm was at least 70%.
For `O=C(COc1ccnc(C(F)(F)F)n1)N1CCC(c2nc(C3=NOC(c4c(Cl)cccc4C(F)(F)F)C3)cs2)CC1` (centres unmarked) [Compound 18, 1-(4-(4-(5-(2-chloro-6-(trifluoromethyl)phenyl)-4,5-dihydroisoxazol-3-yl)thiazol-2-yl)piperidin-1-yl)-2-((2-(trifluoromethyl)pyrimidin-4-yl)oxy)ethan-1-one], the inhibition of growth at 30 ppm in the assay with Phytophthora infestans [1] is at least 70%. Moreover, the pest or weed control at 50 ppm in the assay with Phytophthora infestans [2] is at least 70%.
Consider `O=C(COc1ccnc(C(F)(F)F)n1)N1CCC(c2nc(C3=NOC(c4c(F)cccc4Br)C3)cs2)CC1` (centres unmarked) [Compound 15, 1-(4-(4-(5-(2-bromo-6-fluorophenyl)-4,5-dihydroisoxazol-3-yl)thiazol-2-yl)piperidin-1-yl)-2-((2-(trifluoromethyl)pyrimidin-4-yl)oxy)ethan-1-one], for which the inhibition of growth at 30 ppm in the assay on Phytophthora infestans [1] is at least 70%. Besides, the pest or weed control at 50 ppm in the assay with Phytophthora infestans [2] is at least 70%.
Turning to `COc1ccnc(OCC(=O)N2CCC(c3nc(C4=NOC(c5c(Cl)cccc5Cl)C4)cs3)CC2)n1` (centres unmarked) [Compound 33, 1-(4-(4-(5-(2,6-dichlorophenyl)-4,5-dihydroisoxazol-3-yl)thiazol-2-yl)piperidin-1-yl)-2-((4-methoxypyrimidin-2-yl)oxy)ethan-1-one], the inhibition of growth at 30 ppm with Phytophthora infestans [1] was at least 70%. Moreover, the pest or weed control at 50 ppm with Phytophthora infestans [2] is at least 70%.
On to `COc1nccnc1OCC(=O)N1CCC(c2nc(C3=NOC(c4c(F)cccc4F)C3)cs2)CC1` (centres unmarked) [Compound 27, 1-(4-(4-(5-(2,6-difluorophenyl)-4,5-dihydroisoxazol-3-yl)thiazol-2-yl)piperidin-1-yl)-2-((3-methoxypyrazin-2-yl)oxy)ethan-1-one], for which, in the assay with Phytophthora infestans [1], the inhibition of growth at 30 ppm is at least 70%. In addition, the pest or weed control at 50 ppm in the assay on Phytophthora infestans [2] was at least 70%.
With `O=C(COc1ccnc(C(F)(F)F)n1)N1CCC(c2nc(C3=NOC(c4c(Cl)cccc4Cl)C3)cs2)CC1` (centres unmarked) [Compound 16, 1-(4-(4-(5-(2,6-dichlorophenyl)-4,5-dihydroisoxazol-3-yl)thiazol-2-yl)piperidin-1-yl)-2-((2-(trifluoromethyl)pyrimidin-4-yl)oxy)ethan-1-one], the inhibition of growth at 30 ppm in the assay on Phytophthora infestans [1] is at least 70%. For the same compound, the pest or weed control at 50 ppm in the assay with Phytophthora infestans [2] was at least 70%.
`O=C(COc1ccc(C(F)(F)F)nn1)N1CCC(c2nc(C3=NOC(c4c(F)cccc4F)C3)cs2)CC1` (centres unmarked) [Compound 42, 1-(4-(4-(5-(2,6-difluorophenyl)-4,5-dihydroisoxazol-3-yl)thiazol-2-yl)piperidin-1-yl)-2-((6-(trifluoromethyl)pyridazin-3-yl)oxy)ethan-1-one]: the inhibition of growth at 30 ppm in the assay on Phytophthora infestans [1] is at least 70%. Further, the pest or weed control at 50 ppm in the assay on Phytophthora infestans [2] was at least 70%.
Take `O=C(COc1cc(C(F)(F)F)ncn1)N1CCC(c2nc(C3=NOC(c4c(Cl)cccc4Cl)C3)cs2)CC1` (centres unmarked) [Compound 14, 1-(4-(4-(5-(2,6-dichlorophenyl)-4,5-dihydroisoxazol-3-yl)thiazol-2-yl)piperidin-1-yl)-2-((6-(trifluoromethyl)pyrimidin-4-yl)oxy)ethan-1-one]: the inhibition of growth at 30 ppm in the assay with Phytophthora infestans [1] was at least 70%. Besides, the pest or weed control at 50 ppm with Phytophthora infestans [2] was at least 70%.
Regarding `CS(=O)(=O)Oc1cccc(Cl)c1C1CC(c2csc(C3CCN(C(=O)COc4nccnc4C(F)(F)F)CC3)n2)=NO1` (centres unmarked) [Compound 6, 3-chloro-2-(3-(2-(1-(2-((3-(trifluoromethyl)pyrazin-2-yl)oxy)acetyl)piperidin-4-yl)thiazol-4-yl)-4,5-dihydroisoxazol-5-yl)phenyl methanesulfonate], the inhibition of growth at 30 ppm in the assay with Phytophthora infestans [1] was at least 70%. Besides, in the assay with Phytophthora infestans [2], the pest or weed control at 50 ppm is at least 70%.
On to `O=C(COc1ccnc(C(F)(F)F)n1)N1CCC(c2nc(C3=NOC(c4c(F)cccc4F)C3)cs2)CC1` (centres unmarked) [Compound 17, 1-(4-(4-(5-(2,6-difluorophenyl)-4,5-dihydroisoxazol-3-yl)thiazol-2-yl)piperidin-1-yl)-2-((2-(trifluoromethyl)pyrimidin-4-yl)oxy)ethan-1-one], for which the inhibition of growth at 30 ppm in the assay with Phytophthora infestans [1] was at least 70%. For the same compound, the pest or weed control at 50 ppm with Phytophthora infestans [2] was at least 70%.
With `O=C(COc1nccnc1C(F)(F)F)N1CCC(c2nc(C3=NOC(c4c(F)cccc4F)C3)cs2)CC1` (centres unmarked) [Compound 5, 1-(4-(4-(5-(2,6-difluorophenyl)-4,5-dihydroisoxazol-3-yl)thiazol-2-yl)piperidin-1-yl)-2-((3-(trifluoromethyl)pyrazin-2-yl)oxy)ethan-1-one], in the assay with Phytophthora infestans [1], the inhibition of growth at 30 ppm was at least 70%. Besides, in the assay with Phytophthora infestans [2], the pest or weed control at 50 ppm is at least 70%.
